Measured values from US9850245B2 (Merck Sharp & Dohme Corp., priority 2014, dated 2017).
pIC50: −log10 of the molar value.

biological target: ROMK (Homo sapiens (Human), UniProt P48048); test: Thallium Flux Assay; format: cell-based
Method: A Thallium Flux Assay was performed on the compounds of the Examples. This assay has been described previously; see, e.g., PCT Published Application WO 2013/062900.

ROMK, sequence (P48048 whole entry): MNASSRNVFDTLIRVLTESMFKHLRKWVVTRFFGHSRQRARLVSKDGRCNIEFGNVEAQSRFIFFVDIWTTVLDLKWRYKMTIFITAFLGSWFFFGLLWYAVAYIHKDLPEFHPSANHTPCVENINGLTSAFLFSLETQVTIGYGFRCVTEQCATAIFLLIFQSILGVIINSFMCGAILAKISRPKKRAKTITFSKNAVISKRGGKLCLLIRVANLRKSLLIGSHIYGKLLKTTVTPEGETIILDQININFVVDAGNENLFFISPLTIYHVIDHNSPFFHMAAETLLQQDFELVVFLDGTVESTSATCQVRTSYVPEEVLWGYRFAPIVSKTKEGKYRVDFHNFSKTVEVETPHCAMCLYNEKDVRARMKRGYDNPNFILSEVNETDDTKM

Compound	pIC50
CC1=C(N2CC3(CCN(CC(O)c4ccc(-n5cnnn5)nc4C)CC3)OCC2=O)COC1=O (single isomer, unassigned) [Example 60, 9-(2-hydroxy-2-(2-methyl-6-(1H-tetrazol-1-yl)pyridin-3-yl)ethyl)-4-(4-methyl-5-oxo-2,5-dihydrofuran-3-yl)-1-oxa-4,9-diazaspiro[5.5]undecan-3-one]	7.32
CC1=C(N2CCOC3(CCN(CC(O)c4ccc(-n5cnnn5)cn4)CC3)C2=O)COC1=O (single isomer, unassigned) [Example 43, 9-(2-(5-(1H-tetrazol-1-yl)pyridin-2-yl)-2-hydroxyethyl)-4-(4-methyl-5-oxo-2,5-dihydrofuran-3-yl)-1-oxa-4,9-diazaspiro[5.5]undecan-5-one]	7.43
CC1=C(N2CCNC3(CCN(CC(O)c4cnc(-n5cnnn5)cn4)CC3)C2=O)COC1=O (single isomer, unassigned) [Example 3B, 9-(2-(5-(1H-tetrazol-1-yl)pyrazin-2-yl)-2-hydroxyethyl)-4-(4-methyl-5-oxo-2,5-dihydrofuran-3-yl)-1,4,9-triazaspiro[5.5]undecan-5-one]	6.85
CC1=C(N2CCOC3(CCN(C[C@H](F)c4ccc(-n5cnnn5)nc4)CC3)C2=O)COC1=O [Example 55, (R)-9-(2-(6-(1H-tetrazol-1-yl)pyridin-3-yl)-2-fluoroethyl)-4-(4-methyl-5-oxo-2,5-dihydrofuran-3-yl)-1-oxa-4,9-diazaspiro[5.5]undecan-5-one]	7.23
Cc1nc(-n2cnnn2)ccc1C(O)CN1CCC2(CC1)CCN(C1=CC(=O)OC1)C(=O)O2 (single isomer, unassigned) [Example 27, 9-(2-hydroxy-2-(2-methyl-6-(1H-tetrazol-1-yl)pyridin-3-yl)ethyl)-3-(5-oxo-2,5-dihydrofuran-3-yl)-1-oxa-3,9-diazaspiro[5.5]undecan-2-one]	7.18
CC1=C(N2CCOC3(CCN(CC(O)c4cnc(-n5cnnn5)cn4)CC3)C2=O)COC1=O (single isomer, unassigned) [Example 18B, 9-(2-(5-(1H-tetrazol-1-yl)pyrazin-2-yl)-2-hydroxyethyl)-4-(4-methyl-5-oxo-2,5-dihydrofuran-3-yl)-1-oxa-4,9-diazaspiro[5.5]undecan-5-one]	6.96
CC1=C(N2C(=O)C3(CCN(C[C@H](O)c4ccc5c(c4C)COC5=O)CC3)OCC2C)COC1=O (single isomer, unassigned) [Example 11]	6.57
CC1=C(N2CCOC3(CCN(C[C@H](O)c4ccc5c(c4C)COC5=O)CC3)CC2)COC1=O (single isomer, unassigned) [Example 41]	7.49
CC1=C(N2CCOC3(CCN(C[C@@H](F)c4ccc5c(c4C)COC5=O)CC3)C2=O)COC1=O [Example 58, (S)-9-(2-fluoro-2-(4-methyl-1-oxo-1,3-dihydroisobenzofuran-5-yl)ethyl)-4-(4-methyl-5-oxo-2,5-dihydrofuran-3-yl)-1-oxa-4,9-diazaspiro[5.5]undecan-5-one]	6.51
Cc1c([C@@H](O)CN2CCC3(CC2)CN(C2=C(Cl)C(=O)OC2)CCO3)ccc2c1COC2=O [Example 23, (R)-5-(2-(4-(4-chloro-5-oxo-2,5-dihydrofuran-3-yl)-1-oxa-4,9-diazaspiro[5.5]undecan-9-yl)-1-hydroxyethyl)-4-methylisobenzofuran-1(3H)-one]	7.23
CC1=C(N2CCNC3(CCN(CC(O)c4cnc(-n5cnnn5)cn4)CC3)C2=O)COC1=O (single isomer, unassigned) [Example 3A, 9-(2-(5-(1H-tetrazol-1-yl)pyrazin-2-yl)-2-hydroxyethyl)-4-(4-methyl-5-oxo-2,5-dihydrofuran-3-yl)-1,4,9-triazaspiro[5.5]undecan-5-one]	6.94
CC1=C(N2CCOC3(CCN(CCc4ccc5c(c4C)COC5=O)CC3)C2=O)COC1=O [Example 49, 9-(2-(4-methyl-1-oxo-1,3-dihydroisobenzofuran-5-yl)ethyl)-4-(4-methyl-5-oxo-2,5-dihydrofuran-3-yl)-1-oxa-4,9-diazaspiro[5.5]undecan-5-one]	7.28
O=C1C=C(N2CCOC3(CCN(C[C@H](O)c4ccc(-n5cnnn5)nc4)CC3)C2=O)CO1 [Example 12, (R)-9-(2-(6-(1H-tetrazol-1-yl)pyridin-3-yl)-2-hydroxyethyl)-4-(5-oxo-2,5-dihydrofuran-3-yl)-1-oxa-4,9-diazaspiro[5.5]undecan-5-one]	6.79
CC1=C(N2CCCOC3(CCN(CC(O)c4ccc(-n5cnnn5)nc4C)CC3)C2=O)COC1=O (single isomer, unassigned) [Example 38, 3-(2-hydroxy-2-(2-methyl-6-(1H-tetrazol-1-yl)pyridin-3-yl)ethyl)-11-(4-methyl-5-oxo-2,5-dihydrofuran-3-yl)-7-oxa-3,11-diazaspiro[5.6]dodecan-12-one]	6.28
CC1=C(N2CCOC3(CCN(C[C@@H](F)c4ccc(-n5cnnn5)nc4)CC3)C2=O)COC1=O [Example 56, (S)-9-(2-(6-(1H-tetrazol-1-yl)pyridin-3-yl)-2-fluoroethyl)-4-(4-methyl-5-oxo-2,5-dihydrofuran-3-yl)-1-oxa-4,9-diazaspiro[5.5]undecan-5-one]	7.31

More lines, now with the values ahead:

pIC50	Compound
7.52	COc1cc(-n2cnnn2)ccc1C(O)CN1CCC2(CC1)CN(C1=C(C)C(=O)OC1)CCO2 (single isomer, unassigned) [Example 33A, 4-(9-(2-hydroxy-2-(2-methoxy-4-(1H-tetrazol-1-yl)phenyl)ethyl)-1-oxa-4,9-diazaspiro[5.5]undecan-4-yl)-3-methylfuran-2(5H)-one]
6.38	CC1COC2(CCN(C[C@H](O)c3ccc(-n4cnnn4)nc3)CC2)C(=O)N1C1=CC(=O)OC1 (single isomer, unassigned) [Example 13B]
6.51	CC1=C(N2C(=O)C3(CCN(C[C@H](O)c4ccc(-n5cnnn5)nc4)CC3)OCC2C)COC1=O (single isomer, unassigned) [Example 10B]
6.16	CC1=C(N2CC(F)(F)OC3(CCN(C[C@@H](O)c4ccc(-n5cnnn5)nc4)CC3)C2)COC1=O [Example 7B, (S)-4-(9-(2-(6-(1H-tetrazol-1-yl)pyridin-3-yl)-2-hydroxyethyl)-2,2-difluoro-1-oxa-4,9-diazaspiro[5.5]undecan-4-yl)-3-methylfuran-2(5H)-one]
6.90	CC1=C(N2CCOC3(CCN(CC(O)c4ccc(-n5cnnn5)cc4C)CC3)C2)COC1=O (single isomer, unassigned) [Example 31A, 4-(9-(2-hydroxy-2-(2-methyl-4-(1H-tetrazol-1-yl)phenyl)ethyl)-1-oxa-4,9-diazaspiro[5.5]undecan-4-yl)-3-methylfuran-2(5H)-one]
6.77	O=C1C=C(N2CCC3(CCN(C[C@H](O)c4ccc(-n5cnnn5)nc4)CC3)OC2=O)CO1 [Example 26A, (R)-9-(2-(6-(1H-tetrazol-1-yl)pyridin-3-yl)-2-hydroxyethyl)-3-(5-oxo-2,5-dihydrofuran-3-yl)-1-oxa-3,9-diazaspiro[5.5]undecan-2-one]
6.61	CC1=C(N2CCOC3(CCN(CC(O)c4cnc(-n5cnnn5)cn4)CC3)C2)COC1=O (single isomer, unassigned) [Example 48B, 4-(9-(2-(5-(1H-tetrazol-1-yl)pyrazin-2-yl)-2-hydroxyethyl)-1-oxa-4,9-diazaspiro[5.5]undecan-4-yl)-3-methylfuran-2(5H)-one]
7.94	O=C1OCC(N2CCOC3(CCN(C[C@H](O)c4ccc(-n5cnnn5)nc4)CC3)C2)=C1Cl [Example 24A]
7.46	O=C1OCC(N2CCOC3(CCN(C[C@@H](O)c4ccc(-n5cnnn5)nc4)CC3)C2)=C1Cl [Example 24B]
6.84	CC1=C(N2CCN(C)C3(CCN(CC(O)c4ccc(-n5cnnn5)nc4C)CC3)C2=O)COC1=O (single isomer, unassigned) [Example 35B, 9-(2-hydroxy-2-(2-methyl-6-(1H-tetrazol-1-yl)pyridin-3-yl)ethyl)-1-methyl-4-(4-methyl-5-oxo-2,5-dihydrofuran-3-yl)-1,4,9-triazaspiro[5.5]undecan-5-one]
7.38	CC1=C(N2CCN(C)C3(CCN(CC(O)c4ccc(-n5cnnn5)nc4C)CC3)C2=O)COC1=O (single isomer, unassigned) [Example 35A, 9-(2-hydroxy-2-(2-methyl-6-(1H-tetrazol-1-yl)pyridin-3-yl)ethyl)-1-methyl-4-(4-methyl-5-oxo-2,5-dihydrofuran-3-yl)-1,4,9-triazaspiro[5.5]undecan-5-one]
7.05	CC1=C(N2CCOC3(CCN(C[C@@H](O)c4ccc5c(c4C)COC5=O)CC3)C2=O)COC1=O [Example 8B, (S)-9-(2-hydroxy-2-(4-methyl-1-oxo-1,3-dihydroisobenzofuran-5-yl)ethyl)-4-(4-methyl-5-oxo-2,5-dihydrofuran-3-yl)-1-oxa-4,9-diazaspiro[5.5]undecan-5-one]
6.32	Cc1cc(-n2cnnn2)ccc1C(O)CN1CCC2(CC1)CN(C1=CC(=O)OC1)CCO2 (single isomer, unassigned) [Example 30A, 4-(9-(2-hydroxy-2-(2-methyl-4-(1H-tetrazol-1-yl)phenyl)ethyl)-1-oxa-4,9-diazaspiro[5.5]undecan-4-yl)furan-2(5H)-one]
6.64	CC1COC2(CCN(C[C@@H](O)c3ccc(-n4cnnn4)nc3)CC2)C(=O)N1C1=CC(=O)OC1 (single isomer, unassigned) [Example 13A]
6.65	O=C1OCC(N2CCOC3(CCN(C[C@H](O)c4ccc(-n5cnnn5)nc4)CC3)C2)=C1C1CC1 [Example 28A, (R)-4-(9-(2-(6-(1H-tetrazol-1-yl)pyridin-3-yl)-2-hydroxyethyl)-1-oxa-4,9-diazaspiro[5.5]undecan-4-yl)-3-cyclopropylfuran-2(5H)-one]
6.50	CC1=C(N2C(=O)C3(CCN(C[C@@H](O)c4ccc(-n5cnnn5)nc4)CC3)OCC2C)COC1=O (single isomer, unassigned) [Example 10C]
7.59	CC1=C(N2CCOC3(CCN(CC(O)c4ccc(-n5cnnn5)cc4C)CC3)C2)COC1=O (single isomer, unassigned) [Example 31B, 4-(9-(2-hydroxy-2-(2-methyl-4-(1H-tetrazol-1-yl)phenyl)ethyl)-1-oxa-4,9-diazaspiro[5.5]undecan-4-yl)-3-methylfuran-2(5H)-one]
